Tests used:
JNK1 = JNK1 (Homo sapiens (Human), UniProt P45983); test: In Vitro JNK1 Assay (TR-FRET, phosphorylation of GST-c-Jun); type: biochemical; settings: 0.2 nM active JNK1 kinase, 26.7 nM GST-c-Jun, 2 μM ATP, 30 min at room temperature
In short: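 GST-c-Jun (residues 1-79) phosphorylation by JNK1 in 50 mM HEPES pH 7.0, MgCl2, 1 mM DTT, 0.1 mM Na3VO4, 0.2 mg/mL BSA, 30 min at room temperature. Stopped with EDTA plus anti-phospho-c-Jun antibody and read by TR-FRET 1 hr later. IC50 from percent inhibition over 10 serial dilutions.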

[1] = tested on: phospho(Ser63)-c-jun in HK-2 cells; test: Cell-Based Assay for JNK Inhibitors (in-cell ELISA, phospho(Ser63)-c-jun after TNFα); settings: HK-2 cells (human proximal tubule cells), 60 minutes compound, then 10 ng/mL TNFα for 30 minutes
In short: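 HK-2 human proximal tubule cells were seeded at 40,000 cells/well, cultured 24 h, then serum-starved 16–24 h before TNFα stimulation with compound. Phospho(Ser63)-c-jun was quantified by in-cell ELISA on fixed, permeabilised cells, using a rabbit phospho-specific primary (overnight, 4 °C) and an HRP-linked anti-rabbit secondary. Absorbance was read at 450 nm.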

Chain of JNK1 (P45983 whole entry, the tested form may be a part): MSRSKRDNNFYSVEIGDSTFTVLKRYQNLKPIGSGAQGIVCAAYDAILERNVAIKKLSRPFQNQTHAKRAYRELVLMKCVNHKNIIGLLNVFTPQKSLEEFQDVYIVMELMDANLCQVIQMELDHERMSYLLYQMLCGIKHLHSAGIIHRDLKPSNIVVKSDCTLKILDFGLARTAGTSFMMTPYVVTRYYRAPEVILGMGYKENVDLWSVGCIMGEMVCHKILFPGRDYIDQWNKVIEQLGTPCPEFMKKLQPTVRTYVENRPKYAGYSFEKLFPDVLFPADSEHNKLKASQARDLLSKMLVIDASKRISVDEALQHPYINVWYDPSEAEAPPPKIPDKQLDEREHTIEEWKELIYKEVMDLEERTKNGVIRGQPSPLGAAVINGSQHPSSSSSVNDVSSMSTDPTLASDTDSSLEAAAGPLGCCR

SMILES	IC50 (JNK1)	EC50 [1]
CS(=O)(=O)C1CCN(c2ccc(C(=O)NCc3cn(-c4ccccc4)c4cc(Cl)ccc4c3=O)cn2)CC1 [Example I-69, 4-Methanesulfonyl-3,4,5,6-tetrahydro-2H-[1,2′]bipyridinyl-5′-carboxylic acid (7-chloro-4-oxo-1-phenyl-1,4-dihydro-quinolin-3-ylmethyl)-amide]	0.024 µM	39 µM
O=C(NCc1cn(-c2ccccc2)c2cc(Cl)ccc2c1=O)c1ccc(N2CC[C@@H](O)C2)nc1 [Example I-70]	0.024 µM	33 µM
COC1CCN(c2ccc(C(=O)NCc3cn(-c4ccccc4)c4cc(Cl)ccc4c3=O)cn2)CC1 [Example I-71, 4-Methoxy-3,4,5,6-tetrahydro-2H-[1,2′]bipyridinyl-5′-carboxylic acid (7-chloro-4-oxo-1-phenyl-1,4-dihydro-quinolin-3-ylmethyl)-amide]	0.026 µM	17 µM
CNC(=O)C1CCN(c2ccc(C(=O)NCc3cn(-c4ccccc4)c4cc(Cl)ccc4c3=O)cn2)CC1 [Example I-72, 3,4,5,6-Tetrahydro-2H-[1,2′]bipyridinyl-4,5′-dicarboxylic acid 5′-[(7-chloro-4-oxo-1-phenyl-1,4-dihydro-quinolin-3-ylmethyl)-amide]-4-methylamide]	0.027 µM	100 µM
NC(=O)N1CCN(c2ccc(C(=O)NCc3cn(-c4ccccc4)c4cc(Cl)ccc4c3=O)cn2)CC1 [Example I-73, 4-{5-[(7-Chloro-4-oxo-1-phenyl-1,4-dihydro-quinolin-3-ylmethyl)-carbamoyl]-pyridin-2-yl}-piperazine-1-carboxylic acid amide]	0.029 µM	100 µM
COCCNc1ccc(C(=O)NCc2cn(-c3ccccc3)c3cc(Cl)ccc3c2=O)cn1 [Example I-74, N-(7-Chloro-4-oxo-1-phenyl-1,4-dihydro-quinolin-3-ylmethyl)-6-(2-methoxy-ethylamino)-nicotinamide]	0.03 µM	27 µM
CN(C)C1CCN(c2ccc(C(=O)NCc3cn(-c4ccccc4)c4cc(Cl)ccc4c3=O)cn2)CC1 [Example I-75, 4-Dimethylamino-3,4,5,6-tetrahydro-2H-[1,2′]bipyridinyl-5′-carboxylic acid (7-chloro-4-oxo-1-phenyl-1,4-dihydro-quinolin-3-ylmethyl)-amide]	0.031 µM	14 µM
O=C(NCc1cn(-c2ccccc2)c2cc(Cl)ccc2c1=O)c1ccc(N2CCC(O)CC2)nc1 [Example I-76, 4-Hydroxy-3,4,5,6-tetrahydro-2H-[1,2′]bipyridinyl-5′-carboxylic acid (7-chloro-4-oxo-1-phenyl-1,4-dihydro-quinolin-3-ylmethyl)-amide]	0.034 µM	48 µM
O=C(NCc1cn(-c2ccccc2)c2cc(Cl)ccc2c1=O)c1ccc(NCCO)nc1 [Example I-77, N-(7-Chloro-4-oxo-1-phenyl-1,4-dihydro-quinolin-3-ylmethyl)-6-(2-hydroxy-ethylamino)-nicotinamide]	0.047 µM	63 µM
O=C(NCc1cn(-c2ccccc2)c2cc(Cl)ccc2c1=O)c1ccc(NC2CCOCC2)nc1 [Example I-78, N-(7-Chloro-4-oxo-1-phenyl-1,4-dihydro-quinolin-3-ylmethyl)-6-(tetrahydro-pyran-4-ylamino)-nicotinamide]	0.049 µM	22 µM
CN(C)c1ccc(C(=O)NCc2cn(-c3ccccc3)c3cc(Cl)ccc3c2=O)cn1 [Example I-79, N-(7-Chloro-4-oxo-1-phenyl-1,4-dihydro-quinolin-3-ylmethyl)-6-dimethylamino-nicotinamide]	0.055 µM	46 µM
O=C(NCc1cn(-c2ccccc2)c2cc(Cl)ccc2c1=O)c1ccc(N2CCS(=O)(=O)CC2)nc1 [Example I-80, N-(7-Chloro-4-oxo-1-phenyl-1,4-dihydro-quinolin-3-ylmethyl)-6-(1,1-dioxo-thiomorpholin-4-yl)-nicotinamide]	0.056 µM	12 µM
CC(C)(C)OC(=O)NC1CCN(c2ccc(C(=O)NCc3cn(-c4ccccc4)c4cc(Cl)ccc4c3=O)cn2)CC1 [Example I-81, {5′-[(7-Chloro-4-oxo-1-phenyl-1,4-dihydro-quinolin-3-ylmethyl)-carbamoyl]-3,4,5,6-tetrahydro-2H-[1,2]bipyridinyl-4-yl}-carbamic acid tert-butyl ester]	0.065 µM	100 µM
CN1CCCN(c2ccc(C(=O)NCc3cn(-c4ccccc4)c4cc(Cl)ccc4c3=O)cn2)CC1 [Example I-82, N-(7-Chloro-4-oxo-1-phenyl-1,4-dihydro-quinolin-3-ylmethyl)-6-(4-methyl-[1,4]diazepan-1-yl)-nicotinamide]	0.071 µM	19 µM
O=C(NCc1cn(-c2ccccc2)c2cc(Cl)ccc2c1=O)c1ccc(N2CCN(CCO)CC2)nc1 [Example I-83, N-(7-Chloro-4-oxo-1-phenyl-1,4-dihydro-quinolin-3-ylmethyl)-6-[4-(2-hydroxy-ethyl)-piperazin-1-yl]-nicotinamide]	0.081 µM	12 µM
O=C(NCc1cn(-c2ccccc2)c2cc(Cl)ccc2c1=O)c1ccc(N2CCCC2)nc1 [Example I-84, N-(7-Chloro-4-oxo-1-phenyl-1,4-dihydro-quinolin-3-ylmethyl)-6-pyrrolidin-1-yl-nicotinamide]	0.1 µM	52 µM
O=C(NCc1cn(-c2ccccc2)c2cc(Cl)ccc2c1=O)c1ccc(N2CCNCC2)nc1 [Example I-85, N-(7-Chloro-4-oxo-1-phenyl-1,4-dihydro-quinolin-3-ylmethyl)-6-piperazin-1-yl-nicotinamide]	0.11 µM	72 µM
O=C(NCc1cn(-c2ccccc2)c2cc(Cl)ccc2c1=O)c1cnc(N2CCCCC2)s1 [Example I-91, 2-Piperidin-1-yl-thiazole-5-carboxylic acid (7-chloro-4-oxo-1-phenyl-1,4-dihydro-quinolin-3-ylmethyl)-amide]	0.016 µM	19 µM
CS(=O)(=O)C1CCN(c2ncc(C(=O)NCc3cn(-c4ccccc4)c4cc(Cl)ccc4c3=O)s2)CC1 [Example I-92, 2-(4-Methanesulfonyl-piperidin-1-yl)-thiazole-5-carboxylic acid (7-chloro-4-oxo-1-phenyl-1,4-dihydro-quinolin-3-ylmethyl)-amide]	0.021 µM	26 µM
O=C(NCc1cn(-c2ccccc2)c2cc(Cl)ccc2c1=O)c1cnc(N2CCC(CO)CC2)s1 [Example I-93, 2-(4-Hydroxymethyl-piperidin-1-yl)-thiazole-5-carboxylic acid (7-chloro-4-oxo-1-phenyl-1,4-dihydro-quinolin-3-ylmethyl)-amide]	0.033 µM	100 µM
O=C(NCc1cn(-c2ccccc2)c2cc(Cl)ccc2c1=O)c1cnc(N2CCC(O)CC2)s1 [Example I-94, 2-(4-Hydroxypiperidin-1-yl)-thiazole-5-carboxylic acid (7-chloro-4-oxo-1-phenyl-1,4-dihydro-quinolin-3-ylmethyl)-amide]	0.036 µM	14 µM
CN1CCN(c2ncc(C(=O)NCc3cn(-c4ccccc4)c4cc(Cl)ccc4c3=O)s2)CC1 [Example I-95, 2-(4-Methyl-piperazin-1-yl)-thiazole-5-carboxylic acid (7-chloro-4-oxo-1-phenyl-1,4-dihydro-quinolin-3-ylmethyl)-amide]	0.04 µM	22 µM
O=C(NCc1cn(-c2ccccc2)c2cc(Cl)ccc2c1=O)c1cnc(N2CCOCC2)s1 [Example I-96, 2-Morpholin-4-yl-thiazole-5-carboxylic acid (7-chloro-4-oxo-1-phenyl-1,4-dihydro-quinolin-3-ylmethyl)-amide]	0.055 µM	100 µM
O=C(NCc1cn(-c2ccccc2)c2cc(Cl)ccc2c1=O)c1cnc(N2CCS(=O)(=O)CC2)s1 [Example I-97, 2-(1,1-Dioxo-thiomorpholin-4-yl)-thiazole-5-carboxylic acid (7-chloro-4-oxo-1-phenyl-1,4-dihydro-quinolin-3-ylmethyl)-amide]	0.069 µM	39 µM
O=C(NCc1cn(-c2ccccc2)c2cc(Cl)ccc2c1=O)c1ccc(C(=O)NC2C3CC4CC2CC(O)(C4)C3)cc1 (stereo not shown) [Example I-99, N-(7-Chloro-4-oxo-1-phenyl-1,4-dihydro-quinolin-3-ylmethyl)-N′-(5-hydroxy-adamantan-2-yl)-terephthalamide]	0.052 µM	6.2 µM
O=C(NCc1cn(-c2ccccc2Cl)c2cc(Cl)ccc2c1=O)c1ccc(N2CCOCC2)nc1 [Example I-100]	0.09 µM	29 µM
Cn1cc(C(=O)NCc2cn(-c3ccccc3F)c3cc(F)ccc3c2=O)cn1 [Example I-104, 1-Methyl-1H-pyrazole-4-carboxylic acid [7-fluoro-1-(2-fluoro-phenyl)-4-oxo-1,4-dihydro-quinolin-3-ylmethyl]-amide]	0.12 µM	100 µM
O=C(NCc1cn(-c2ccccc2F)c2cc(F)ccc2c1=O)c1ccc(N2CCC(CO)CC2)nc1 [Example I-106, 4-Hydroxymethyl-3,4,5,6-tetrahydro-2H-[1,2′]bipyridinyl-5′-carboxylic acid [7-fluoro-1-(2-fluoro-phenyl)-4-oxo-1,4-dihydro-quinolin-3-ylmethyl]-amide]	0.052 µM	50 µM
O=C(NCc1cn(-c2ccccc2F)c2cc(F)ccc2c1=O)c1ccc(N2CCOCC2)nc1 [Example I-108, N-[7-Fluoro-1-(2-fluoro-phenyl)-4-oxo-1,4-dihydro-quinolin-3-ylmethyl]-6-morpholin-4-yl-nicotinamide]	0.12 µM	47 µM

Reference: patent US8501732B2, “Aminomethyl quinolone compounds” (Hoffmann-La Roche Inc., priority 2011, dated 2013)
